Results reported in US8242152B2, “Use of 4-[(4-thiazolyl)phenoxy]alkoxy-benzamidine derivatives for the prophylaxis and treatment of osteoporosis” (Dong Wha Pharmaceutical Co., Ltd., priority 2001, dated 2012).

Legend:
[1] = test system: sciatic nerve neurectomized ddY mice; test: Prophylactic effects in neurectomized ddY mouse model (immobilization osteoporosis); type: in vivo; conditions: for TBV (%): epiphyseal regions of right tibia; for Cbt (um): mid-shaft regions of right tibia; for histological profiles of epiphyseal regions: FIG. 10, Hematoxylin-Eosin; for TBV % compared to control group (in words) / cortical bone thickness compared to control group (in words): right tibia, Fosamax 1 mg/kg, DW1350MSA 10 and 50 mg/kg
Source text: The effects of a drug would be based on histomorphometric changes of trabecular bone and thickness of cortical bone in this model.
The objective of the present study is to observe the anti-osteoporotic potential of DW1350MSA, and administration of the drug was initiated 2 days after neurectomy for prophylaxis study.
Twenty-five female ddY mice (6-wk old upon receipt, SLC, Japan) were used after acclimatization for 7 days. Animals were allocated to 5 per polycarbonate cage in a temperature (20-25° C.) and humidity (30-35%) controlled room. Light:dark cycle was 12 hr:12 hr and feed (Samyang, Korea) and water were supplied free to access. 20 mice were neurectomized and 5 mice were sham operated. For the prophylaxis study, treatment was initiated 2 days after neurectomy and then each sample was administrated for 4 weeks.
DW1350MSA was dissolved in injectable distilled water and administered at a dosage volume of 10 ml/kg by oral gavage. The administered dose and schedule of these drugs are shown as Table 12.
3) Operation • A. Sham operation: The right side of the sciatic nerve was exposed by incision of skin and hip muscles, (about 1 cm) after that closed by skin suture. • B. neurectomy: After exposure of the right side of the sciatic nerve, about 1 mm of sciatic nerve was removed. After that closed by routine methods. • C. Operation was conducted under Ketamine hydrochloride (M.W.=256.8; 23076-35-9, ICN Biochemicals Inc., USA) and Xylazine hydrochloride (M.W.=274.19; 116-00512, Wako Pure Chemical Industries Ltd., Japan) anesthesia.
After that, embedded in paraffin, sectioned (3˜4 um) and stained with hematoxylin-eosin strain.
Mid-shaft cortical bone of tibia, and trabecular bone volume % of tibia were evaluated. In addition, histological profiles of epiphyseal regions of right tibia and femur were also observed. • A. Measurement of trabecular bone volume (TBV) Trabecular bone volume was calculated using automated image analysis (analySIS Image Processing; SIS, Germany) under magnification […] (×200) of microscopy (Zeiss, Germany) in the uniform area of epiphyseal regions of the right tibia and/or femur (growth plate regions were excluded). Trabecular bone volume was calculated as percentage levels. • B. Thickness of cortical bone (Cbt): Cortical bone thickness was detected in mid-shaft regions of right tibia and/or femur, and they were calculated using an automated image analyzer (analysis Image Processing; SIS, Germany) under magnification 200 (×200) of microscopy (Zeiss, Germany) at prepared histological samples. The thickness was detected as um levels. • C.
(§1) All data was calculated as mean±S.D. Statistical analyses was conducted using Mann-Whitney U-Wilcoxon Rank Sum W test (M-W test) with SPSS for Windows (Release 6.1.3., SPSS Inc., USA).

ovariectomized ddY mice = test: Prophylactic effects in ovariectomized ddY mouse model (estrogen-deficient osteoporosis); type: in vivo; conditions: for histological profiles of epiphyseal regions of right tibia and femur: FIG. 11
Description: The effects of a drug would be based on histomorphometric changes of trabecular bone and thickness cortical bone in this model.
The objective of present study is to observe the prophylactic effect of DW1350MSA, and administration of drug was initiated 3 days after ovariectomy for prophylaxis study.
Twenty-five female ddY mice (6-wk old upon receipt, SLC, Japan) were used after acclimatization for 7 days. Animals were allocated 5 per polycarbonate cage in a temperature (20-25° C.) and humidity (30-35%) controlled room. Light:dark cycle was 12 hr:12 hr and feed (Samyang, Korea) and water were supplied free to access. 20 mice were ovariectomized and 5 mice were sham operated. For prophylaxis study, treatment was initiated 3 days after ovariectomy and then each sample was administrated for 6 weeks.
DW1350MSA was dissolved in injectable distilled water and administered at a dosage volume of 10 ml/kg by oral gavage.
3) Operation • A. Sham operation: Bilateral ovaries were exposed by incision of skin and abdominal muscles, (about 3 cm) after that closed by skin suture. • B. Ovariectomy: After exposure of bilateral ovaries, they were removed. After that closed by routine methods. • C. Operation was conduct under Ketamine hydrochloride (M.W.=256.8; 23076-35-9, ICN Biochemicals Inc., USA) and Xylazine hydrochloride (M.W.=274.19; 116-00512, Wako Pure Chemical Industries Ltd., Japan) anesthesia.
After that, embedded in paraffin, sectioned (3˜4 um) and stained with hematoxylin-eosin stain.
Histomorphometric changes of tibia and femur were evaluated. All histomorphometric indices including trabecular bone volume (TBV, %), thickness of trabecular bone (Tbt), trabecular bone number (Tbn), and length of trabeculer bone (Tbl) were calculated using automated image analysis (analysis Image Processing; SIS, Germany) under magnification 200 (×200) of microscopy (Zeiss, Germany) in the epiphyseal regions of right tibia and/or femur. In addition, cortical bone thickness (Cbt) was measured in mid-shaft region of right tibia and femur. […] Trabecular bone volume was calculated as percentage levels. • B. Measurement of histomorphometric index of trabecular bone: Thickness of trabecular bone (Tbt), trabecular bone number (Tbn), and length of trabecular bone (Tbl) were calculated using automated image analysis in the epiphyseal regions of right tibia and/or femur. Tbt and Tbl were calculated as um levels, and Tbn were calculated as number/whole sectional part of epiphyseal regions levels. • C. Thickness of cortical bone (Cbt): Cortical bone thickness was detected in mid-shaft regions of right tibia and/or femur, and they were calculated using automated image analyzer at prepared histological samples.
as §1

[2] = 10 mg/kg oral once a day for 4 weeks
[3] = 50 mg/kg oral once a day for 4 weeks
[4] = right femur, 10 mg/kg oral once a day for 6 weeks (F10, D10)
[5] = right femur, 50 mg/kg oral once a day for 6 weeks (D50)
[6] = right tibia, 10 mg/kg oral once a day for 6 weeks (F10, D10)
[7] = right tibia, 50 mg/kg oral once a day for 6 weeks (D50)
[8] = tibia and femur, DW1350MSA 10 and 50 mg/kg, Fosamax 10 mg/kg
[9] = 1 mg/kg oral once a day for 4 weeks

Q: With `CS(=O)(=O)O.Cc1nc(-c2ccc(OCCCCCOc3ccc(C(N)=NO)cc3)cc2)c(C(C)C)s1` [DW1350MSA] as the compound, how does the “TBV (%)” value [1, 2] read?
A: 25.75 ± 2.87 # %

Q: What about the “Cbt (um)” value [1, 2] of the same compound?
A: 171.36 ± 18.60 # um

Q: And the “TBV (%)” value [1, 3]?
A: 33.29 ± 4.96 %

Q: And the “Cbt (um)” value [1, 3]?
A: 193.87 ± 12.50 um

Q: What about the “histological profiles of epiphyseal regions” value [1] of the same compound?
A: relatively well developed, especially in width and number, trabecular bone was detected

Q: What about the “TBV % compared to control group (in words)” value [1] of the same compound?
A: significant dose-dependent (p<0.01) increase of trabecular bone volume %

Q: And the “cortical bone thickness compared to control group (in words)” value [1]?
A: significant dose-dependent (p<0.01) increase of cortical bone thickness

Q: What about the “histological profiles of epiphyseal regions of right tibia and femur” value (ovariectomized ddY mice) of the same compound?
A: relatively well developed, especially in width and length, trabecular bone was detected

Q: And the “Cbt, cortical bone thickness” value (ovariectomized ddY mice; [4])?
A: 118.00 ± 16.79 um

Q: What about the “Ocn, osteoclast cell number” value (ovariectomized ddY mice; [4]) of the same compound?
A: 5.00 ± 1.58 number

Q: And the “TBV, trabecular bone volume” value (ovariectomized ddY mice; [4])?
A: 36.97 ± 9.59 # %

Q: What about the “Tbl, trabecular bone length” value (ovariectomized ddY mice; [4]) of the same compound?
A: 635.60 ± 190.76 um

Q: What about the “Tbn, trabecular bone number” value (ovariectomized ddY mice; [4]) of the same compound?
A: 19.00 ± 1.58 number/epiphyseal

Q: What about the “Tbt, trabecular bone thickness” value (ovariectomized ddY mice; [4]) of the same compound?
A: 48.60 ± 10.50 ## um

Q: What about the “Cbt, cortical bone thickness” value (ovariectomized ddY mice; [5]) of the same compound?
A: 140.26 ± 33.16 um

Q: What about the “Ocn, osteoclast cell number” value (ovariectomized ddY mice; [5]) of the same compound?
A: 4.40 ± 1.34 number

Q: And the “TBV, trabecular bone volume” value (ovariectomized ddY mice; [5])?
A: 41.91 ± 6.04 # %

Q: What about the “Tbl, trabecular bone length” value (ovariectomized ddY mice; [5]) of the same compound?
A: 743.40 ± 187.00 um

Q: And the “Tbn, trabecular bone number” value (ovariectomized ddY mice; [5])?
A: 21.80 ± 1.92 number/epiphyseal

Q: And the “Tbt, trabecular bone thickness” value (ovariectomized ddY mice; [5])?
A: 68.00 ± 21.41 um

Q: What about the “Cbt, cortical bone thickness” value (ovariectomized ddY mice; [6]) of the same compound?
A: 136.80 ± 26.58 # um

Q: What about the “Ocn, osteoclast cell number” value (ovariectomized ddY mice; [6]) of the same compound?
A: 5.40 ± 1.52 # number

Q: What about the “TBV, trabecular bone volume” value (ovariectomized ddY mice; [6]) of the same compound?
A: 35.20 ± 4.90 # %

Q: And the “Tbl, trabecular bone length” value (ovariectomized ddY mice; [6])?
A: 605.00 ± 160.44 ## um

Q: What about the “Tbn, trabecular bone number” value (ovariectomized ddY mice; [6]) of the same compound?
A: 11.80 ± 3.11 # number/epiphyseal

Q: And the “Tbt, trabecular bone thickness” value (ovariectomized ddY mice; [6])?
A: 60.80 ± 13.20 # um

Q: What about the “Cbt, cortical bone thickness” value (ovariectomized ddY mice; [7]) of the same compound?
A: 170.40 ± 44.73 um

Q: And the “Ocn, osteoclast cell number” value (ovariectomized ddY mice; [7])?
A: 3.60 ± 1.14 # number

Q: What about the “TBV, trabecular bone volume” value (ovariectomized ddY mice; [7]) of the same compound?
A: 38.42 ± 4.67 # %

Q: And the “Tbl, trabecular bone length” value (ovariectomized ddY mice; [7])?
A: 679.20 ± 249.47 um

Q: What about the “Tbn, trabecular bone number” value (ovariectomized ddY mice; [7]) of the same compound?
A: 11.80 ± 3.96 # number/epiphyseal

Q: And the “Tbt, trabecular bone thickness” value (ovariectomized ddY mice; [7])?
A: 112.60 ± 45.76 um

Q: And the “effect on decrease of Cbt induced by ovariectomy (summary in words)” value (ovariectomized ddY mice; [8])?
A: significant effect to inhibit the decrease of Cbt induced by ovariectomy and the efficacy was higher than that of Fosamax

Q: And the “effect on decrease of TBV induced by ovariectomy (summary in words)” value (ovariectomized ddY mice; [8])?
A: some significance effect to inhibit the decrease of TBV induced by ovariectomy but the efficacy was somewhat lower than that of Fosamax

Q: What about the “effect on decrease of Tbl induced by ovariectomy (summary in words)” value (ovariectomized ddY mice; [8]) of the same compound?
A: significant effect to inhibit the decrease of Tbl induced by ovariectomy and the efficacy was somewhat higher than that of Fosamax

Q: And the “effect on decrease of Tbn induced by ovariectomy (summary in words)” value (ovariectomized ddY mice; [8])?
A: significance effect to inhibit the decrease of Tbn induced by ovariectomy and the efficacy was somewhat lower than that of Fosamax

Q: What about the “effect on decrease of Tbt induced by ovariectomy (summary in words)” value (ovariectomized ddY mice; [8]) of the same compound?
A: significance effect to inhibit the decrease of Tbt induced by ovariectomy and the efficacy was somewhat higher than that of Fosamax

Q: What about the “effect on increase of Ocn induced by ovariectomy (summary in words)” value (ovariectomized ddY mice; [8]) of the same compound?
A: significant effect to inhibit the increase of Ocn induced by ovariectomy and the efficacy was higher than that of Fosamax

Q: With `NCCCC(O)(P(=O)(O)O)P(=O)(O)O` [Fosamax, Alendronate] as the compound, how does the “TBV (%)” value [1, 9] read?
A: 21.81 ± 4.35 # %

Q: And the “Cbt (um)” value [1, 9]?
A: 125.75 ± 36.01 um

Q: And the “histological profiles of epiphyseal regions” value [1]?
A: more numerous extended trabecular bones were demonstrated compared to that of Control group

Q: And the “TBV % compared to control group (in words)” value [1]?
A: significantly (p<0.01) increased compared to that of the control group

Q: What about the “cortical bone thickness compared to control group (in words)” value [1] of the same compound?
A: significantly increased compared to that of the control group but significances were not demonstrated

Q: And the “histological profiles of epiphyseal regions of right tibia and femur” value (ovariectomized ddY mice)?
A: more numerous extended trabecular bones were demonstrated compared to that of Control

Q: And the “Cbt, cortical bone thickness” value (ovariectomized ddY mice; [4])?
A: 53.00 ± 23.82 um

Q: And the “TBV, trabecular bone volume” value (ovariectomized ddY mice; [4])?
A: 58.26 ± 5.77 %

Q: And the “Tbl, trabecular bone length” value (ovariectomized ddY mice; [4])?
A: 460.80 ± 260.64 ## um

Q: What about the “Tbn, trabecular bone number” value (ovariectomized ddY mice; [4]) of the same compound?
A: 23.60 ± 2.97 # number/epiphyseal

Q: And the “Tbt, trabecular bone thickness” value (ovariectomized ddY mice; [4])?
A: 33.00 ± 12.45 um

Q: What about the “Cbt, cortical bone thickness” value (ovariectomized ddY mice; [6]) of the same compound?
A: 59.80 ± 15.55 um

Q: And the “TBV, trabecular bone volume” value (ovariectomized ddY mice; [6])?
A: 47.56 ± 7.23 # %

Q: What about the “Tbl, trabecular bone length” value (ovariectomized ddY mice; [6]) of the same compound?
A: 550.00 ± 74.98 ## um

Q: And the “Tbn, trabecular bone number” value (ovariectomized ddY mice; [6])?
A: 12.60 ± 4.98 number/epiphyseal

Q: And the “Tbt, trabecular bone thickness” value (ovariectomized ddY mice; [6])?
A: 83.20 ± 39.86 # um

Q: What about the “effect on decrease of Cbt induced by ovariectomy (summary in words)” value (ovariectomized ddY mice; [8]) of the same compound?
A: no favorable effect to changes of Cbt

Q: And the “effect on increase of Ocn induced by ovariectomy (summary in words)” value (ovariectomized ddY mice; [8])?
A: no favorable effect to changes of Ocn
